Literature values, collected in patent CN101129366A, “一种尼莫地平药物组合物及其制备方法” (Beijing Zhonghaikang Medical Technology Development Co Ltd, priority 2007, dated 2008).

Conditions: drug substance

In the case of `COCCOC(=O)C1=C(C)NC(C)=C(C(=O)OC(C)C)C1c1cccc([N+](=O)[O-])c1` (stereo not shown) [尼莫地平], the “solubility in acetone and chloroform” value (acetone, chloroform) is listed as “易溶”, the solubility in ethanol (ethanol) is listed as “溶解” and the “solubility in diethyl ether” value (ether) is listed as “微溶”. The solubility in water (water) was “不溶”.
